Earlier results on 18 compounds are cited in patent publication US20110226621A1, “TARGET RECOGNITION MOLECULE AND A METHOD FOR IMMOBILIZING THE SAME” (Sharp Kabushiki Kaisha, priority 2009, published 2011).

Where two headings read alike, the source gives them in different places.

For the data set the following is noted: individual amino acid.
Setting [1] is: Table 1 repeated in Example 1-1.

As to `NCCCC[C@H](N)C(=O)O` [lysine], the isoelectric point (Table 1 in summary) is reported as 9.75 and the isoelectric point under setting [1] is listed as 9.75.

`NCC(=O)O` [glycine]: the isoelectric point is on record as 5.97 (Table 1 in summary) and 5.97 under setting [1].

On to `O=C(O)[C@@H]1CCCN1` [proline], for which the isoelectric point was 6.30 (Table 1 in summary) and 6.30 under setting [1].

Regarding `C[C@@H](O)[C@H](N)C(=O)O` [threonine], the isoelectric point was 6.16 (Table 1 in summary) and 6.16 under setting [1].

For the compound `NC(=O)C[C@H](N)C(=O)O` [asparagine], the isoelectric point runs as follows: (Table 1 in summary) 5.41; under setting [1], 5.41.

For `N[C@@H](CS)C(=O)O` [cysteine], the isoelectric point runs as follows: (Table 1 in summary) 5.05; under setting [1], 5.05.

As to `N[C@@H](CCC(=O)O)C(=O)O` [glutamic acid], the isoelectric point (Table 1 in summary) is reported as 3.22 and the isoelectric point under setting [1] was 3.22.

For `N[C@@H](CO)C(=O)O` [serine], the isoelectric point runs as follows: (Table 1 in summary) 5.68; under setting [1], 5.68.

For the compound `N[C@@H](Cc1c[nH]c2ccccc12)C(=O)O` [tryptophan], the isoelectric point (Table 1 in summary) is listed as 5.89 and the isoelectric point under setting [1] was 5.89.

`N=C(N)NCCC[C@H](N)C(=O)O` [arginine]: the isoelectric point is given as 10.76 (Table 1 in summary) and 10.76 under setting [1].

On to `N[C@@H](Cc1ccccc1)C(=O)O` [phenylalanine], for which the isoelectric point is, setting by setting: (Table 1 in summary) 5.48; under setting [1], 5.48.

As to `CC[C@H](C)[C@H](N)C(=O)O` [isoleucine], the isoelectric point is, setting by setting: (Table 1 in summary) 6.05; under setting [1], 6.05.

Regarding `CSCC[C@H](N)C(=O)O` [methionine], the isoelectric point reads like this: (Table 1 in summary) 5.74; under setting [1], 5.74.

Turning to `N[C@@H](Cc1ccc(O)cc1)C(=O)O` [tyrosine], the isoelectric point is recorded as 5.66 (Table 1 in summary) and 5.66 under setting [1].

On to `CC(C)[C@H](N)C(=O)O` [valine], for which the isoelectric point is, setting by setting: (Table 1 in summary) 5.96; under setting [1], 5.96.

Consider `C[C@H](N)C(=O)O` [alanine], for which the isoelectric point is, setting by setting: (Table 1 in summary) 6.00; under setting [1], 6.00.

With `N[C@@H](Cc1c[nH]cn1)C(=O)O` [histidine], the isoelectric point by setting is: (Table 1 in summary) 7.59; under setting [1], 7.59.

`N[C@@H](CC(=O)O)C(=O)O` [aspartic acid]: the isoelectric point reads like this: (Table 1 in summary) 2.77; under setting [1], 2.77.
